In patent US20080004266A1, “Method for treating proliferative disorders associated with protooncogene products” (priority 2006, published 2008):

What was measured:
P815 cells (c-Kit D814Y) = test: Cell survival in mouse mastacytoma cell line P815 (Cell Counting Kit-8); type: cell-based; settings: 72 hours
Procedure: Mouse mastacytoma cell line P815 was obtained from the American Type Culture Collection (ATCC; Manassas, Va., USA). […] P815 cells (20,000 cells/well) were cultured in 96-well plates and maintained at 37° C. for several hours. […] 17AAG and 17DMAG are Hsp90 inhibitors that are currently in clinical trials and are used here as positive controls for Hsp90 inhibition. […] Cell survival was measured with Cell Counting Kit-8 (Dojindo Laboratories, Cat # CK04).

[1] = tested on: human acute myelogenous leukemia tumor cell line Mv 4-11; test: Mv 4-11 (FLT3-ITD) nude mouse xenograft model; type: in vivo, human (xenograft in nude mouse); settings: for % T/C value: nude mice, 3 doses
Procedure: The human acute myelogenous leukemia (AML) cell line, Mv 4-11 (ATCC #CRL-9591), was obtained from the American Type Culture Collection (ATCC; Manassas, Va., USA). Growth of this tumor cell line is dependent upon the expression of an activated form of the FLT3 tyrosine kinase receptor carrying an internal tandem duplication (ITD) mutation, which is the most common molecular defect associated with AML (K. W. Yee et al., Blood 100:2941-2949, 2002). The cells were cultured in growth media prepared with Iscove's Modified Dulbecco's Media, 10% fetal bovine serum (FBS), 1% 100× Penicillin-Streptomycin, 1% 100× sodium pyruvate and 1% 100×MEM non-essential amino acids. FBS was obtained from ATCC and all other reagents were obtained from Invitrogen Corp. (Carlsbad, Calif., USA). Cells that had been cryopreserved in liquid nitrogen were rapidly thawed at 37° C. and transferred to a tissue culture flask containing growth media and then incubated at 37° C. in a 5% CO2 incubator. To expand the cell line, cultures were passaged 1:2 to a density of 5×10 (6) cells/ml every three days by adding an equal volume of fresh growth media. When the flasks reached a density of approximately 10×10 (6) cells/ml, the above passaging process was repeated until sufficient cells had been obtained for implantation into mice.
Seven to eight week old, female Crl:CD-1-nuBR (nude) mice were obtained from Charles River Laboratories (Wilmington, Mass., USA). Animals were housed 4-5/cage in micro-isolators, with a 12 hr/12 hr light/dark cycle, acclimated for at least 1 week prior to use and fed normal laboratory chow ad libitum. Studies were conducted on animals between 8 and 10 weeks of age at implantation. To implant Mv 4-11 tumor cells into nude mice, cell cultures were centrifuged to pellet the cells, the supernatant was aspirated, the cell pellet was resuspended in 10 ml of growth media and the cell number determined using a hemocytometer. […]
Tumors were then permitted to develop in vivo until the majority reached 100-200 mm^3 in tumor volume, which typically required 1-2 weeks following implantation. […] Tumor volumes (V) were calculated by caliper measurement of the width (W), length (L) and thickness (T) of tumors using the following formula: V=0.5236×(L×W×T). Animals were randomized into treatment groups so that the median tumor volumes of each group were similar at the start of dosing. % T/C values, as a measure of efficacy, were determined as follows: • (i) If ΔT>0: % T/C=(ΔT/ΔC)×100 • (ii) If ΔT<0: % T/C=(ΔT/T0)×100 • (iii) ΔT=Change in median tumor volume between start of dosing and the end of study. • (iv) ΔC=Change in median tumor volume between start of dosing and the end of study. • (v) T0=Median tumor volume at start of dosing. […]

[2] = 125 mg/kg i.v. 1 time per week, day 41

SMILES: CC(C)c1cc(-c2nnc(O)n2-c2ccc3c(ccn3C)c2)c(O)cc1O [Compound 226, 3-(2,4-di-hydroxy-5-isopropyl-phenyl)-4-(1-methyl-indol-5-yl)-5-hydroxy-[1,2,4] triazole]
- IC50 for cell survival (comparison) (P815 cells (c-Kit D814Y)): lower IC50 for cell survival than 17AAG, 17DMAG or Gleevec
- average bodyweight loss relative to the start of the study [1, 2]: −1.4% (+/−1.6 SEM)
- animals with no apparent tumors ([1]; 125 mg/kg treatment group, by day 41 (end of the study)): 2 of 8
- % T/C value ([1]; 50 mg/kg i.v. 1 time per week, day 41): −63.8%
- % T/C value [1, 2]: −93.0%
